Laboratory results taken from patent US6465204B1, “Amidase” (Diversa Corporation, priority 1996, dated 2002).

Columns and labels:
[1] = test system: Thermococcus GU5L5 amidase; assay: Activity and enantioselectivity of the amidase in increasing concentrations of DMF; format: biochemical; settings: for Initial Rate: RT, cell lysate, pH 7.5 Hepes
Description: The activity and enantioselectivity of the amidase in increasing concentrations of dimethyl formamide (DMF) was tested as follows: to each well of a microtiter plate was added 30 μL of 1 mM CBZ-L-arg-AMC or CBZ-D-arg-AMC in DMF, 30 μL of cell lysate containing the amidase activity, and 240 μL of a variable mixture of DMF:pH 7.5, 50 mM Hepes buffer. The reactiosn were incubated at RT for 1 hour and the fluorescence measured at 1 minute intervals.

[2] = test system: Thermococcus GU5L5 amidase; assay: Substrate specificity of the amidase (fluorogenic substrates); format: biochemical; settings: substrate 100 μM, 1 hour at 70° C.; ratio between substrates
Description: Fifty μL of the ‘600 μM stock solution’ was added to each of the wells of a white condensed plate using the Biomek to yield a final concentration of substrate of ˜100 μM. The fluorescence values were recorded (excitation=400 nm, emission=505 nm) on a plate reading fluorometer immediately after addition of the substrate. The plate was incubated at 70° C. for 60 min. and the fluorescence values were recorded again. The initial and final fluorescence values were subtracted to determine if an active clone was present by an increase in fluorescence over the majority of the other wells.
The excitation and emission wavelengths for the 7-amido-4-methylcoumarins were 380 and 460 nm respectively, and 326 and 450 for the methylumbelliferone.

[3] = Organic solvent sensitivity: activity of the amidase in increasing concentrations of DMSO; format: biochemical, Thermococcus GU5L5
Description: The activity of the amidase in increasing concentrations of dimethyl sulfoxide (DMSO) was tested as follows: to each well of a microtiter plate was added 10 μL of 3 mM CBZ-L-phe-AMC in DMSO, 25 μL of cell lysate containing the amidase activity, and 250 μL of a variable mixture of DMSO:pH 7.5, 50 mM Hepes buffer. The reactions were heated for 1 hour at 70° C. and the fluorescence measured. […] The filled and open boxes represent individual assays.

[4] = Temperature tolerance of the enzyme; design: species or system Thermococcus GU5L5

Cc1cc(=O)oc2cc(NC(=O)[C@@H](CCCNC(=N)N)NC(=O)OCc3ccccc3)ccc12 [CBZ-D-arg-AMC, Nα-carbonylbenzyloxy-D-arginine-7-amido-4-methylcoumarin]
Initial Rate ([1]; DMF 0.4%): 0.3 Fl.U./min | Initial Rate ([1]; DMF 10%): 10.1 Fl.U./min | Initial Rate ([1]; DMF 20%): 4.6 Fl.U./min | Initial Rate ([1]; DMF 30%): 1.8 Fl.U./min | Initial Rate ([1]; DMF 40%): 0.9 Fl.U./min | Initial Rate ([1]; DMF 50%): 1.2 Fl.U./min | Initial Rate ([1]; DMF 60%): 1.4 Fl.U./min | Initial Rate ([1]; DMF 75%): 0.1 Fl.U./min | Initial Rate ([1]; DMF 90%): 0.1 Fl.U./min

Cc1cc(=O)oc2cc(NC(=O)[C@H](CCCNC(=N)N)NC(=O)OCc3ccccc3)ccc12 [CBZ-L-arg-AMC, Nα-carbonylbenzyloxy-L-arginine-7-amido-4-methylcoumarin]
Initial Rate ([1]; DMF 0.4%): 654 Fl.U./min | Initial Rate ([1]; DMF 10%): 2548 Fl.U./min | Initial Rate ([1]; DMF 20%): 1451 Fl.U./min | Initial Rate ([1]; DMF 30%): 541 Fl.U./min | Initial Rate ([1]; DMF 40%): 345 Fl.U./min | Initial Rate ([1]; DMF 50%): 303 Fl.U./min | Initial Rate ([1]; DMF 60%): 190 Fl.U./min | Initial Rate ([1]; DMF 75%): 81 Fl.U./min | Initial Rate ([1]; DMF 90%): 11 Fl.U./min | relative activity of the amidase [2]: 3

CSCC[C@H](NC(=O)OCc1ccccc1)C(=O)Nc1ccc2c(C)cc(=O)oc2c1 [CBZ-L-met-AMC, Nα-carbonylbenzyloxy-L-methionine-7-amido-4-methylcoumarin]
relative activity of the amidase [2]: 1

Cc1cc(=O)oc2cc(NC(=O)[C@H](Cc3ccccc3)NC(=O)OCc3ccccc3)ccc12 [CBZ-L-phe-AMC, Nα-carbonylbenzyloxy-L-phenylalanine-7-amido4-methylcoumarin]
relative activity of the amidase [2]: 3

B1: enzyme: purified thermostable amidase derived from Thermococcus GU5L5, 622 amino acid residues (SEQ ID NO:2) (protein)
chain: MTGIEWNHETFSKFAYLGDPRIRGNLIAYTLTKANMKDNKYESTVVVEDLETGSRRFIENASMPRISPDGRKLAFTCFNEEKKETEIWVADIQTLSAKKVLSTKNVRSMQWNDDSRRLLVVGFKRRDDEDFVFDDDVPVWFDNMGFFDGEKTTFWVLDTEAEEIIEQFEKPRFSSGLWHGDAIVVNVPHREGSKPALFKFYDIVLWKDGEEEKLFERVSFEAVDSDGKRILLRGKKKKRFISEHDWLYLWDGELKPIYEGPLDVWEAKLTEGKVYFLTPDAGRVNLWLWDGKAERVVTGDHWIYGLDVSDGKALLLIMTATRIGELYLYDGELKQVTEYNGPIFRKLKTFEPRHFRFKSKDLEIDGWYLRPEVKEEKAPVIVFVHGGPKGMYGHRFVYEMQLMASKGYYVVFVNPRGSDGYSEDFALRVLERTGLEDFEDIMNGIEEFFKLEPQADRERVGITGISYGGFMTNWALTQSDLFKAGISENGISYWLTSYAFSDIGLWYDVEVIGPNPLENENFRKLSPLFYAQNVKAPILLIHSLEDYRCPLDQSLMFYNVLKDMGKEAYIAIFKRGAHGHSVRGSPRHRPKRYRLFIEFFERKLKKYEEGFEVEKILKGNGN
concentration of organic solvent tolerated [3]: > 40 % DMSO | temperature tolerated [4]: at least 70 °C | selectivity for the L enantiomer of the derivatized amino acid substrate ([1]; CBZ-L-arg-AMC versus CBZ-D-arg-AMC): excellent selectivity for the L
